Broadly, the IC50 is the point on the concentration scale where inhibition reaches its midpoint. A lower IC50 goes with greater potency in that assay.

Ten compounds from patent EP4722213A1, “NITROGEN-CONTAINING FUNCTIONAL GROUP-SUBSTITUTED PYRIDAZINOPYRIDONE DERIVATIVE AND USE THEREOF” (Sichuan Huiyu Pharmaceutical Co., Ltd., priority 2023, dated 2024) can be followed below.

The target in the assay is T1, SOS1 (Homo sapiens, UniProt Q07889).
T1 sequence (Q07889 1-1333): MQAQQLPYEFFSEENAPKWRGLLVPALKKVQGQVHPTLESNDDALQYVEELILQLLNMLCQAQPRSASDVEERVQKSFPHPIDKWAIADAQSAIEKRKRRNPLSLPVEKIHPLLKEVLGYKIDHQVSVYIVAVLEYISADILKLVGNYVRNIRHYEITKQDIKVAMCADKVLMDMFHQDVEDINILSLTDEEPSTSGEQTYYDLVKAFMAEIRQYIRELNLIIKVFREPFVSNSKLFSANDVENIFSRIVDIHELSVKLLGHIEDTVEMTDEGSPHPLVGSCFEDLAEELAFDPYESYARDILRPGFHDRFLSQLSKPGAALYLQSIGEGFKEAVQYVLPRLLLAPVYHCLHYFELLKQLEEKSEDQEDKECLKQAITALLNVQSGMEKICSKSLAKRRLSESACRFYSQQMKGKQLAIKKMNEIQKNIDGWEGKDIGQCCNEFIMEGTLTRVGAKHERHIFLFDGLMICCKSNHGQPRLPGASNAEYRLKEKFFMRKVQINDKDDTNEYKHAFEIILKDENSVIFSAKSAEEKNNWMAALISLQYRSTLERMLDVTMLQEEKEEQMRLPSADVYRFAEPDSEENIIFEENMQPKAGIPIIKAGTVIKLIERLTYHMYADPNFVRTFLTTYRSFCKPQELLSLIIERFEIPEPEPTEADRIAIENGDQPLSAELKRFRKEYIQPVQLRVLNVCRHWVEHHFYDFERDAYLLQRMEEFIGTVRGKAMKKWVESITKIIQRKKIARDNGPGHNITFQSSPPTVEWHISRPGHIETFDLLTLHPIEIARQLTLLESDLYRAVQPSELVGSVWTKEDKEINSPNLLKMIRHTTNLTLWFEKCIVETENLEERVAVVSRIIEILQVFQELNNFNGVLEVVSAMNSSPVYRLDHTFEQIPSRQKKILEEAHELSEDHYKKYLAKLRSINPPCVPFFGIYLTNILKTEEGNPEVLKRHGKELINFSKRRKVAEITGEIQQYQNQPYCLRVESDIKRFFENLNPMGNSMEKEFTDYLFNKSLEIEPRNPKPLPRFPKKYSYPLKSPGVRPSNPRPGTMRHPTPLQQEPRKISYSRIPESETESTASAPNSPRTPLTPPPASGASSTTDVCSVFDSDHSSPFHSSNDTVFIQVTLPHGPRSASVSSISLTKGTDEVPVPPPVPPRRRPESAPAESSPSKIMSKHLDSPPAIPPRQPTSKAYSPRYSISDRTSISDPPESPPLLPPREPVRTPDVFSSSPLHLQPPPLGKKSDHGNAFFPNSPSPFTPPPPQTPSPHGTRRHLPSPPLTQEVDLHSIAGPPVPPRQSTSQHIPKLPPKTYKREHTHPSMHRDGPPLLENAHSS
The assay is described as follows: biochemical.

Counter-ions that a name gives are not always drawn.

For the compound `C[C@@H](Nc1nnc(NN2CCN(C)CC2)c2cc(=O)n(C3(C)CC3)cc12)c1cccc(C(F)(F)F)c1` [Example 159, (R)-6-(1-methylcyclopropyl)-1-((4-methylpiperazin-1-yl)amino)-4-((1-(3-(trifluoromethyl)phenyl)ethyl)amino)pyr ido[3,4-d]pyridazin-7(6H)-one formate], the midpoint of inhibition, the IC50, lay at 6.4 nM.
`CCN1CCN(c2nnc(N[C@H](C)c3cc(N)cc(C)c3F)c3cn(C4(C)CC4)c(=O)cc23)CC1` [Example 160, (R)-4-((1-(5-amino-2-fluoro-3-methylphenyl)ethyl)amino)-1-(4-ethylpiperazin-1-yl)-6-(1-methylcyclopropyl) pyrido[3,4-d]pyridazin-7(6H)-one formate] gave an IC50 of 5.7 nM.
Then `Cc1cc(N)cc([C@@H](C)Nc2nnc(N3CCN(C(C)C)CC3)c3cc(=O)n(C4(C)CC4)cc23)c1F` [Example 161, (R)-4-((1-(5-amino-2-fluoro-3-methylphenyl)ethyl)amino)-1-(4-isopropylpiperazin-1-yl)-6-(1-methylcyclopropyl) pyrido[3,4-d]pyridazin-7(6H)-one], with 5.2 nM; and `Cc1cc(N)cc([C@@H](C)Nc2nnc(N3CCN(C4CC4)CC3)c3cc(=O)n(C4(C)CC4)cc23)c1F` [Example 162, (R)-4-((1-(5-amino-2-fluoro-3-methylphenyl)ethyl)amino)-1-(4-cyclopropylpiperazin-1-yl)-6-(1-methylcyclopropyl) pyrido[3,4-d]pyridazin-7(6H)-one], with 6.7 nM; and `Cc1c(C#N)cccc1[C@@H](C)Nc1nnc(N2CC[C@H](CO)C2)c2cc(=O)n(N3CC4CCCC4C3)cc12` (stereo partly drawn) [Example 166, 3-((1R)-1-((6-(hexahydrocyclopenta[c]pyrrol-2(1H)-yl)-1-((S)-3-(hydroxymethyl)pyrrolidin-1-yl)-7-oxo-6,7-dihydropyrido[3,4-d]pyridazin-4-yl)amino)ethyl)-2-methylbenzonitrile], with 9.7 nM.
Take `Cc1c(C#N)cccc1[C@@H](C)Nc1nnc(N2CCN(C)[C@H](C)C2)c2cc(=O)n(N3CC4CCCC4C3)cc12` (stereo partly drawn) [Example 167, 3-((1R)-1-((1-((R)-3,4-dimethylpiperazin-1-yl)-6-(hexahydrocyclopenta[c]pyrrol-2(1H)-yl)-7-oxo-6,7-dihydropyrido[3,4-d]pyridazin-4-yl)amino)ethyl)-2-methylbenzonitrile]: inhibition was half-maximal at 6.3 nM (IC50).
For `CC(C)N1CCN(c2nnc(N[C@H](C)c3cccc(C(F)(F)F)c3F)c3cn(C4(C)CC4)c(=O)cc23)CC1` [Example 169, (R)-4-((1-(2-fluoro-3-(trifluoromethyl)phenyl)ethyl)amino)-1-(4-isopropylpiperazin-1-yl)-6-(1-methylcyclopropyl) pyrido[3,4-d]pyridazin-7(6H)-one], inhibition was half-maximal at 4.7 nM (IC50).
The value for `C[C@@H](Nc1nnc(N2CCN(C3CC3)CC2)c2cc(=O)n(C3(C)CC3)cc12)c1cccc(C(F)(F)F)c1F` [Example 170, (R)-4-((1-(2-fluoro-3-(trifluoromethyl)phenyl)ethyl)amino)-1-(4-cyclopropylpiperazin-1-yl)-6-(1-methylcyclopropyl) pyrido[3,4-d]pyridazin-7(6H)-one] was 6.7 nM; that for `C[C@@H](Nc1nnc(N2CCN(C3CCCC3)CC2)c2cc(=O)n(C3(C)CC3)cc12)c1cccc(C(F)(F)F)c1F` [Example 171, (R)-4-((1-(2-fluoro-3-(trifluoromethyl)phenyl)ethyl)amino)-1-(4-cyclopentylpiperazin-1-yl)-6-(1-methylcyclopropyl) pyrido[3,4-d]pyridazin-7(6H)-one] was 5 nM; that for `C[C@@H](Nc1nnc(N2CCN(C(C)(C)C)CC2)c2cc(=O)n(C3(C)CC3)cc12)c1cccc(C(F)(F)F)c1F` [Example 172, (R)-4-((1-(2-fluoro-3-(trifluoromethyl)phenyl)ethyl)amino)-1-(4-tert-butylpiperazin-1-yl)-6-(1-methylcyclopropyl) pyrido[3,4-d]pyridazin-7(6H)-one] was 4.7 nM.
